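Each compound was tested at five concentrations against cells in 96-well plates for 48 hours. TGI marks complete inhibition of growth.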
What was measured:
Assay in all cases: DTP human tumour cell line panel, 48 h
[1] = system: 786-0 renal
[2] = system: A498 renal
[3] = system: A549 NSCLC
[4] = system: ACHN renal
[5] = system: BT-549 breast
[6] = system: CAKI-1 renal
[7] = system: CCRF-CEM leukemia
[8] = system: COLO 205 colon
[9] = system: DU-145 prostate
[10] = system: EKVX NSCLC
[11] = system: HCT-116 colon
[12] = system: HCT-15 colon
[13] = system: HL-60(TB) leukemia
[14] = system: HOP-62 NSCLC
[15] = system: HOP-92 NSCLC
[16] = system: HS 578T breast
[17] = system: HT29 colon
[18] = system: IGROV1 ovarian
[19] = system: K-562 leukemia
[20] = system: KM12 colon
[21] = system: LOX IMVI melanoma
[22] = system: MALME-3M melanoma
[23] = system: MCF7 breast
[24] = system: MDA-MB-231 breast
[25] = system: MDA-MB-435
[26] = system: MDA-N
[27] = system: MOLT-4 leukemia
[28] = system: NCI-H23 lung
[29] = system: NCI-H460 lung
[30] = system: NCI-H522 lung
[31] = system: NCI/ADR-RES ovarian
[32] = system: OVCAR-3 ovarian
[33] = system: OVCAR-4 ovarian
[34] = system: OVCAR-5 ovarian
[35] = system: OVCAR-8 ovarian
[36] = system: PC-3 prostate
[37] = system: RPMI-8226 leukemia
[38] = system: RXF 393 renal
[39] = system: SF-268 CNS
[40] = system: SF-295 CNS
[41] = system: SF-539 CNS
[42] = system: SK-MEL-2 melanoma
[43] = system: SK-MEL-28 melanoma
[44] = system: SK-MEL-5 melanoma
[45] = system: SK-OV-3 ovarian
[46] = system: SN12C renal
[47] = system: SNB-19 CNS
[48] = system: SNB-75 CNS
[49] = system: SR leukemia
[50] = system: SW-620 colon
[51] = system: T-47D breast
[52] = system: TK-10 renal
[53] = system: U251 CNS
[54] = system: UACC-257 melanoma
[55] = system: UACC-62 melanoma
[56] = system: UO-31 renal
[57] = system: M14 melanoma

## NNC(=O)CC(=O)Nc1ccccc1Cl
[1]
  TGI: > 100 µM
[2]
  TGI: > 100 µM
[3]
  TGI: > 100 µM
[4]
  TGI: > 100 µM
[5]
  TGI: > 100 µM
[6]
  TGI: > 100 µM
[7]
  TGI: > 100 µM
[8]
  TGI: > 100 µM
[9]
  TGI: > 100 µM
[10]
  TGI: > 100 µM
[11]
  TGI: > 100 µM
[12]
  TGI: > 100 µM
[13]
  TGI: > 100 µM
[14]
  TGI: > 100 µM
[15]
  TGI: > 100 µM
[16]
  TGI: > 100 µM
[17]
  TGI: > 100 µM
[18]
  TGI: > 100 µM
[19]
  TGI: > 100 µM
[20]
  TGI: > 100 µM
[21]
  TGI: > 100 µM
[22]
  TGI: > 100 µM
[23]
  TGI: > 100 µM
[24]
  TGI: > 100 µM
[25]
  TGI: > 100 µM
[26]
  TGI: > 100 µM
[27]
  TGI: > 100 µM
[28]
  TGI: > 100 µM
[29]
  TGI: > 100 µM
[30]
  TGI: > 100 µM
[31]
  TGI: > 100 µM
[32]
  TGI: > 100 µM
[33]
  TGI: > 100 µM
[34]
  TGI: > 100 µM
[35]
  TGI: > 100 µM
[36]
  TGI: > 100 µM
[37]
  TGI: > 100 µM
[38]
  TGI: > 100 µM
[39]
  TGI: > 100 µM
[40]
  TGI: > 100 µM
[41]
  TGI: > 100 µM
[42]
  TGI: > 100 µM
[43]
  TGI: > 100 µM
[44]
  TGI: > 100 µM
[45]
  TGI: > 100 µM
[46]
  TGI: > 100 µM
[47]
  TGI: > 100 µM
[48]
  TGI: > 100 µM
[49]
  TGI: > 100 µM
[50]
  TGI: > 100 µM
[51]
  TGI: > 100 µM
[52]
  TGI: > 100 µM
[53]
  TGI: > 100 µM
[54]
  TGI: > 100 µM
[55]
  TGI: > 100 µM
[56]
  TGI: > 100 µM

## CCOC(=O)CC[C@H](NC(=O)c1ccc(CNc2nc3cc(C(F)(F)F)ccc3nc2C(=O)OCC)cc1)C(=O)OCC
[1]
  TGI: 18.8 µM
[2]
  TGI: > 100 µM
[3]
  TGI: > 100 µM
[4]
  TGI: > 93.2 µM
[5]
  TGI: 70.3 µM
[6]
  TGI: 29.5 µM
[7]
  TGI: > 100 µM
[8]
  TGI: > 100 µM
[9]
  TGI: > 100 µM
[10]
  TGI: 42.7 µM
[11]
  TGI: > 100 µM
[12]
  TGI: > 100 µM
[13]
  TGI: > 100 µM
[14]
  TGI: > 46 µM
[15]
  TGI: 48.9 µM
[16]
  TGI: 19.7 µM
[17]
  TGI: > 100 µM
[18]
  TGI: > 53.4 µM
[19]
  TGI: > 100 µM
[20]
  TGI: > 100 µM
[21]
  TGI: > 100 µM
[57]
  TGI: > 66.2 µM
[22]
  TGI: 50.3 µM
[23]
  TGI: > 51.9 µM
[24]
  TGI: > 48.4 µM
[25]
  TGI: > 100 µM
[26]
  TGI: > 100 µM
[27]
  TGI: > 100 µM
[28]
  TGI: > 100 µM
[29]
  TGI: 77.7 µM
[30]
  TGI: 29.1 µM
[31]
  TGI: > 100 µM
[32]
  TGI: > 53.2 µM
[34]
  TGI: > 86 µM
[35]
  TGI: > 100 µM
[36]
  TGI: > 89.3 µM
[37]
  TGI: > 100 µM
[38]
  TGI: > 100 µM
[39]
  TGI: 34.4 µM
[40]
  TGI: 24.7 µM
[41]
  TGI: 17.3 µM
[42]
  TGI: > 94.1 µM
[43]
  TGI: > 100 µM
[44]
  TGI: > 66.6 µM
[45]
  TGI: > 100 µM
[46]
  TGI: > 100 µM
[47]
  TGI: 25.4 µM
[48]
  TGI: 41.3 µM
[49]
  TGI: > 100 µM
[50]
  TGI: > 100 µM
[51]
  TGI: 60.8 µM
[52]
  TGI: 38.5 µM
[53]
  TGI: 18.5 µM
[54]
  TGI: > 100 µM
[55]
  TGI: 43 µM
[56]
  TGI: 70.3 µM

— PubChem BioAssay (NCI)
